Results as given in patent publication US20250171437A1 (Agios Pharmaceuticals,Inc., priority 2022, published 2025).

Biological target: T1, human PAH with the R408W mutation (A375 R408W cells) (Homo sapiens, UniProt P00439, R408W)
T1 construct: expressed in transfected cells
T1 sequence (P00439 1-452 R408W): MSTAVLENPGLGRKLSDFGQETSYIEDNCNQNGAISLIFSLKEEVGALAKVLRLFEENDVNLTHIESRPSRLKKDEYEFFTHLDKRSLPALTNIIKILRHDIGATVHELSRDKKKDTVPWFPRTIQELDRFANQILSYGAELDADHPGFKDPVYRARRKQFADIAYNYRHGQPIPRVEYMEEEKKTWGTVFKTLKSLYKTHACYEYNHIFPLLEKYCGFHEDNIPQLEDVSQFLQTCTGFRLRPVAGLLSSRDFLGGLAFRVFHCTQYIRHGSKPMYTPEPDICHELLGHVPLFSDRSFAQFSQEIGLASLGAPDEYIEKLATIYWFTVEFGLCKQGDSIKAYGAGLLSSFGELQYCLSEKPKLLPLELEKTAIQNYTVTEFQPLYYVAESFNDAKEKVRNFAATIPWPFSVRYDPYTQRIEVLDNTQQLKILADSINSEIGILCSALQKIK
Assay: Cell Based Phenylalanine Flux Assay
Conditions: A375 R408W cells; 24 hrs with compound, then 20 μM sepiapterin and 800 μM 13C9,15N-Phenylalanine for 4 hours; 13C-Tyrosine by LC-MS; average where tested multiple times
Method in brief: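 A375 cells stably expressing human PAH R408W treated 24 h at 37° C with a 10-point 2-fold dose curve in duplicate, 0.5% DMSO. Then 20 μM sepiapterin and 800 μM 13C9,15N-Phe added for 4 h; 13C-Tyr in media measured by LC-MS to give AC50.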

SMILES	AC50 [µM]
Cn1cc(-c2nnc(C(=O)N3CCc4[nH]cnc4[C@@H]3c3nc4c(F)cccc4o3)o2)cn1 [Example 198, (R)-(4-(4-fluorobenzo[d]oxazol-2-yl)-6,7-dihydro-1H-imidazo[4,5-c]pyridin-5(4H)-yl)(5-(1-methyl-1H-pyrazol-4-yl)-1,3,4-oxadiazol-2-yl)methanone]	1 to 5
Cc1cccc2nc([C@@H]3c4nc[nH]c4CCN3C(=O)c3nnc(-c4ccn(C(F)F)n4)o3)oc12 [Example 860, (S)-(5-(1-(difluoromethyl)-1H-pyrazol-3-yl)-1,3,4-oxadiazol-2-yl)(4-(7-methylbenzo[d]oxazol-2-yl)-6,7-dihydro-1H-imidazo[4,5-c]pyridin-5(4H)-yl)methanone]	0.5 to 1
Cc1nc([C@@H](C)O)oc1C(=O)N1CCc2[nH]cnc2[C@@H]1c1nc2cccc(F)c2o1 [Example 218, ((R)-4-(7-fluorobenzo[d]oxazol-2-yl)-6,7-dihydro-1H-imidazo[4,5-c]pyridin-5(4H)-yl)(2-((R)-1-hydroxyethyl)-4-methyloxazol-5-yl)methanone]	1 to 5
CC(C)(O)c1nc(C(F)F)c(C(=O)N2CCc3[nH]cnc3[C@@H]2c2nc3c(Cl)cccc3o2)o1 [Example 436, [(4R)-4-(4-chloro-1,3-benzoxazol-2-yl)-1,4,6,7-tetrahydroimidazo[4,5-c]pyridin-5-yl]-[4-(difluoromethyl)-2-(1-hydroxy-1-methyl-ethyl)oxazol-5-yl]methanone]	0.5 to 1
O=C(c1ccnn1C(F)F)N1CCc2[nH]cnc2[C@H]1c1nc2cccc(F)c2o1 [Example 195, (S)-(1-(difluoromethyl)-1H-pyrazol-5-yl)(4-(7-fluorobenzo[d]oxazol-2-yl)-6,7-dihydro-1H-imidazo[4,5-c]pyridin-5(4H)-yl)methanone]	≤ 0.5
O=C(c1nnc(-c2ccccn2)o1)N1CCc2[nH]cnc2[C@@H]1c1nc2c(F)cccc2o1 [Example 334, (R)-(4-(4-fluorobenzo[d]oxazol-2-yl)-6,7-dihydro-1H-imidazo[4,5-c]pyridin-5(4H)-yl)(5-(pyridin-2-yl)-1,3,4-oxadiazol-2-yl)methanone]	1 to 5
O=C(c1oc(N2CCC(F)CC2)nc1C(F)F)N1CCc2[nH]cnc2[C@@H]1c1nc2cc(F)ccc2o1 [Example 402, (R)-(4-(difluoromethyl)-2-(4-fluoropiperidin-1-yl)oxazol-5-yl)(4-(5-fluorobenzo[d]oxazol-2-yl)-6,7-dihydro-1H-imidazo[4,5-c]pyridin-5(4H)-yl)methanone]	1 to 5
O=C(c1ocnc1C(F)F)N1Cc2[nH]cnc2[C@@H]1c1nc2ccccc2o1 [Example 922, (R)-(4-(benzo[d]oxazol-2-yl)-4,6-dihydropyrrolo[3,4-d]imidazol-5(1H)-yl)(4-(difluoromethyl)oxazol-5-yl)methanone]	1 to 5
O=C(c1ccnn1CC(F)F)N1CCc2[nH]cnc2[C@@H]1c1nc2c(F)cccc2o1 [Example 849, (R)-(1-(2,2-difluoroethyl)-1H-pyrazol-5-yl)(4-(4-fluorobenzo[d]oxazol-2-yl)-6,7-dihydro-1H-imidazo[4,5-c]pyridin-5(4H)-yl)methanone]	≤ 0.5
CC(O)c1nc(Cl)c(C(=O)N2CCc3[nH]cnc3[C@@H]2c2nc3cc(F)ccc3o2)o1 (single isomer, unassigned) [Example 233]	1 to 5
Cn1nc(Cl)nc1C(=O)N1CCc2[nH]cnc2[C@H]1c1nc2ccc(F)cc2o1 [Example 343, (S)-(3-chloro-1-methyl-1H-1,2,4-triazol-5-yl)(4-(6-fluorobenzo[d]oxazol-2-yl)-6,7-dihydro-1H-imidazo[4,5-c]pyridin-5(4H)-yl)methanone]	1 to 5
Cn1cc(-c2nnc(C(=O)N3CCc4[nH]cnc4[C@H]3c3nc4c(F)ccc(F)c4o3)o2)cn1 [Example 518, (S)-(4-(4,7-difluorobenzo[d]oxazol-2-yl)-6,7-dihydro-1H-imidazo[4,5-c]pyridin-5(4H)-yl)(5-(1-methyl-1H-pyrazol-4-yl)-1,3,4-oxadiazol-2-yl)methanone]	≤ 0.5
O=C(c1oc(-c2ccc(C(F)(F)F)cn2)nc1C(F)F)N1CCc2[nH]cnc2[C@@H]1c1nc2cccc(F)c2o1 [Example 634, (R)-(4-(difluoromethyl)-2-(5-(trifluoromethyl)pyridin-2-yl)oxazol-5-yl)(4-(7-fluorobenzo[d]oxazol-2-yl)-6,7-dihydro-1H-imidazo[4,5-c]pyridin-5(4H)-yl)methanone]	≤ 0.5
O=C(c1nnc(-c2cc(C(F)(F)F)ccn2)o1)N1CCc2[nH]cnc2[C@H]1c1nc2cc(F)ccc2o1 [Example 122, [(4S)-4-(5-fluoro-1,3-benzoxazol-2-yl)-1,4,6,7-tetrahydroimidazo[4,5-c]pyridin-5-yl]-[5-[4-(trifluoromethyl)-2-pyridyl]-1,3,4-oxadiazol-2-yl]methanone]	≤ 0.5
O=C(c1ocnc1C(F)F)N1CCc2[nH]cnc2[C@@H]1c1nc2cc(Cl)ccc2o1 [Example 377, (R)-(4-(5-chlorobenzo[d]oxazol-2-yl)-6,7-dihydro-1H-imidazo[4,5-c]pyridin-5(4H)-yl)(4-(difluoromethyl)oxazol-5-yl)methanone]	0.5 to 1
CN1CCN(c2nc(C(F)F)c(C(=O)N3CCc4[nH]cnc4[C@H]3c3nc4cc(F)ccc4o3)o2)CC1 [Example 403, (S)-(4-(difluoromethyl)-2-(4-methylpiperazin-1-yl)oxazol-5-yl)(4-(5-fluorobenzo[d]oxazol-2-yl)-6,7-dihydro-1H-imidazo[4,5-c]pyridin-5(4H)-yl)methanone]	0.5 to 1

Same assay, conditions: A375 cells expressing R408W PAH; 24 hrs with compound, then 20 μM sepiapterin and 800 μM 13C9,15N-Phenylalanine for 4 hours; 13C-Tyrosine by LC-MS; average where tested multiple times

SMILES	AC50 [µM]
Cn1cnnc1C(=O)N1CCc2[nH]cnc2C1c1nc2cc(F)ccc2o1 (stereo not drawn)	1 to 5
Cc1nc(-c2ccccn2)sc1C(=O)N1CCc2[nH]cnc2C1c1nc2cc(F)ccc2o1 (stereo not drawn)	≥ 5
CC(C)(O)c1cc(C(=O)N2CCc3[nH]cnc3C2c2nc3ccc(F)cc3o2)no1 (stereo not drawn)	≥ 5
O=C(c1ccn(CC(F)F)n1)N1CCc2[nH]cnc2C1c1nc2cccc(F)c2o1 (stereo not drawn)	1 to 5
COCCCc1ccc2c(C(=O)N3CCc4[nH]cnc4C3c3nc4cc(F)ccc4o3)cnn2c1 (stereo not drawn)	≥ 5
O=C(c1nnc(N2CC(F)C2)o1)N1CCc2[nH]cnc2C1c1nc2cc(F)ccc2o1 (stereo not drawn)	1 to 5
O=C(c1cnn2cc(N3CCC(F)CC3)ccc12)N1CCc2[nH]cnc2C1c1nc2cc(F)ccc2o1 (stereo not drawn)	1 to 5
CN(C)CCNc1ccc2c(C(=O)N3CCc4[nH]cnc4C3c3nc4cc(F)ccc4o3)cnn2c1 (single isomer, unassigned) [4S enantiomer of N-[2-(dimethylamino)ethyl]-3-[4-(5-fluoro-1]	≥ 5
CC(C)(O)C1CCN(c2ccc3c(C(=O)N4CCc5[nH]cnc5C4c4nc5cc(F)ccc5o4)cnn3c2)CC1 (stereo not drawn)	1 to 5
O=C(C1CC1)N1CCc2[nH]cnc2[C@@H]1c1nc2cc(F)ccc2o1 (single isomer, unassigned)	≥ 5
O=C(c1cnn2cc(N3CCC(O)CC3)ccc12)N1CCc2[nH]cnc2C1c1nc2c(F)cccc2o1 (stereo not drawn)	1 to 5
CC(C)(O)c1nc(C(F)F)c(C(=O)N2CCc3[nH]cnc3C2c2nc3cc(F)ccc3o2)s1 (stereo not drawn)	1 to 5
Cc1nc(C(C)O)oc1C(=O)N1CCc2[nH]cnc2C1c1nc2cc(F)ccc2o1 (stereo not drawn)	≥ 5
O=C(c1nccs1)N1CCc2[nH]cnc2C1c1nc2ccc(Br)cc2o1 (stereo not drawn)	≥ 5
